Key:
[1] = test system: STAT5 Y694 phosphorylation; assay: Protein electrophoresis and blotting of STAT5 Y694 phosphorylation in Jurkat cells stimulated with human interferon beta; type: cell-based; settings: observed pSTAT5 bands at 10 μM and 100 μM
Procedure, shortened: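 Serum-free Jurkat cells pretreated with compound 1 h, then stimulated with 20 ng/ml human interferon beta for 30 min at 37° C. pSTAT5 measured by western blot with chemiluminescence, normalized to GAPDH and expressed as percent of DMSO control.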

[2] = test system: STAT5 Y694 phosphorylation; assay: HTRF experiment: STAT5 Y694 phosphorylation in Hela cells stimulated with human interferon beta; type: cell-based; settings: 2 hours pretreatment, 10 nM human interferon beta 30 minutes
[3] = test system: mouse collagen-induced arthritis model; assay: Therapeutic efficacy in a mouse collagen-induced arthritis model (clinical score); type: in vivo; settings: mean of group, total score 0-12, oral, Methotrexate 0.25 mg/kg once a week, Tofacitinib 5 mg/kg once a day, X8 1 mg/kg once a day
Source text: Example of Effect 2: Evaluation of the Therapeutic Efficacy of X8 Compound in a Mouse Collagen-Induced Arthritis Model
(§1) Sixty male DBA/1J mice (9-10 weeks old, H-2q haplotype) were acclimatized in a standard animal room for one week and then randomly divided into 5 groups. Except for the healthy control group, the rest were inoculated with collagen antigen injection, and then received oral treatment with different compounds. The brief procedure was to mix bovine type II collagen (purchased from Chondrex, 20021) with an equal volume of Freund's complete adjuvant (purchased from Sigma, F5881), the concentration was 4 mg/ml, and it was treated with a homogenizer at a speed of 20,000 revolutions/min for 5-10 minutes. A needle was inserted between the left side of the dorsal caudal artery and the lateral vein of the mouse, and 50 microliters of modeling agent was injected subcutaneously. 21 days after the first injection, another injection was injected between the right side of the dorsal tail artery and the lateral vein of the mouse. After the first injection, oral administration was started. The drug was formulated with […] PEG300, and it was prepared for immediate use. […] The total score was between 0-12 points, and the swelling of the foot after vaccination was not calculated.

[4] = Body weight of animals in the mouse collagen-induced arthritis model; type: in vivo; settings: oral, X8 1 mg/kg once a day; for body weight of animals, Mean/g: mean of group, Methotrexate 0.25 mg/kg once a week, Tofacitinib 5 mg/kg once a day
Source text: as §1

O=C(Cc1ccc(C(F)(F)F)cc1)N1CCC(N2Cc3ccccc3NC2=O)CC1 [GEN1-161, 3-(1-(2-(4-(trifluoromethyl)phenyl)acetyl)piperidin-4-yl)-3,4-dihydroquinazolin-2(1H)-one]
Example of Effect 1: Inhibiting Ability (Protein Electrophoresis and Blotting) [1]: + | Example of Effect 3: Inhibiting Ratio@10 μM (HTRF Experiment) [2]: 1.38%

O=C(Cc1ccc(C(F)(F)F)cc1)N1CCC(N2C(=O)NCc3ccccc32)CC1 [GEN1-162, 1-(1-(2-(4-(trifluoromethyl)phenyl)acetyl)piperidin-4-yl)-3,4-dihydroquinazolin-2(1H)-one]
Example of Effect 1: Inhibiting Ability (Protein Electrophoresis and Blotting) [1]: + | Example of Effect 3: Inhibiting Ratio@10 μM (HTRF Experiment) [2]: 22.04%

Cc1[nH]c(=O)n(C2CCN(C(=O)Cc3ccc(C(F)(F)F)cc3)CC2)c1-c1ccccc1 [GEN1-166, 4-methyl-5-phenyl-1-(1-(2-(4-(trifluoromethyl)phenyl)acetyl)piperidin-4-yl)-1H-imidazole-2(3H)-one]
Example of Effect 1: Inhibiting Ability (Protein Electrophoresis and Blotting) [1]: + | Example of Effect 3: Inhibiting Ratio@10 μM (HTRF Experiment) [2]: 15.16%

O=C(Cc1ccc(C(F)(F)F)cc1)N1CCC2(CC1)C(=O)Nc1ccccc12 [GEN1-167, 1′-(2-(4-(trifluoromethyl)phenyl)acetyl)spiro[indoline-3,4′-piperidine]-2-one]
Example of Effect 1: Inhibiting Ability (Protein Electrophoresis and Blotting) [1]: + | Example of Effect 3: Inhibiting Ratio@10 μM (HTRF Experiment) [2]: 15.57%

COc1ccc(CC(=O)N2CCC(n3c(=O)[nH]c4cccc(C(F)(F)F)c43)CC2)cc1OC [GEN1-168, 1-(1-(2-(3,4-dimethoxyphenyl)acetyl)piperidin-4-yl)-7-(trifluoromethyl)-1,3-dihydro-2H-benzo[d]imidazol-2-one]
Example of Effect 1: Inhibiting Ability (Protein Electrophoresis and Blotting) [1]: + | Example of Effect 3: Inhibiting Ratio@10 μM (HTRF Experiment) [2]: 47.57%

O=C(Cc1c[nH]c2ccccc12)N1CCC(n2c(=O)[nH]c3cccc(C(F)(F)F)c32)CC1 [GEN1-169]
Example of Effect 1: Inhibiting Ability (Protein Electrophoresis and Blotting) [1]: + | Example of Effect 3: Inhibiting Ratio@10 μM (HTRF Experiment) [2]: 13.47%

CC(=O)/N=c1\[nH]c2cccc(C(F)(F)F)c2n1C1CCN(C(=O)Cc2ccc3ncccc3c2)CC1 [GEN1-171]
Example of Effect 1: Inhibiting Ability (Protein Electrophoresis and Blotting) [1]: − | Example of Effect 3: Inhibiting Ratio@10 μM (HTRF Experiment) [2]: 9.85%

O=C(/N=c1\[nH]c2cccc(C(F)(F)F)c2n1C1CCN(C(=O)Cc2ccc3ncccc3c2)CC1)c1ccccc1 [GEN1-172]
Example of Effect 1: Inhibiting Ability (Protein Electrophoresis and Blotting) [1]: − | Example of Effect 3: Inhibiting Ratio@10 μM (HTRF Experiment) [2]: 13.83%

O=C(Cc1ccc2ncccc2c1)N1CCCC(n2c(=O)[nH]c3cccc(C(F)(F)F)c32)CC1 (stereo not drawn) [GEN1-173, 1-(1-(2-(quinolin-6-yl)acetyl)azacycloheptane-4-yl)-7-(trifluoromethyl)-1,3-dihydro-2H-benzo[d]imidazol-2-one]
Example of Effect 1: Inhibiting Ability (Protein Electrophoresis and Blotting) [1]: + | Example of Effect 3: Inhibiting Ratio@10 μM (HTRF Experiment) [2]: 50.75%

O=C(Cc1ccc(C(F)(F)F)cc1)N1CCC(Cn2c(=O)[nH]c3cccc(C(F)(F)F)c32)CC1 [GEN1-174, 7-(trifluoromethyl)-1-((1-(2-(4-(trifluoromethyl)phenyl)acetyl)piperidin-4-yl)methyl)-1H-benzo[d]imidazol-2(3H)-one]
Example of Effect 1: Inhibiting Ability (Protein Electrophoresis and Blotting) [1]: + | Example of Effect 3: Inhibiting Ratio@10 μM (HTRF Experiment) [2]: 39.65%

CN(Cc1cnc2nc(N)nc(N)c2n1)c1ccc(C(=O)N[C@@H](CCC(=O)O)C(=O)O)cc1 [Methotrexate, methotrexate]
clinical score of arthritis, Mean (the larger the value, the more severe the disease) ([3]; day 0): 0.00 | clinical score of arthritis, Mean (the larger the value, the more severe the disease) ([3]; day 21): 0.00 | clinical score of arthritis, Mean (the larger the value, the more severe the disease) ([3]; day 25): 0.00 | clinical score of arthritis, Mean (the larger the value, the more severe the disease) ([3]; day 28): 0.40 | clinical score of arthritis, Mean (the larger the value, the more severe the disease) ([3]; day 31): 1.32 | clinical score of arthritis, Mean (the larger the value, the more severe the disease) ([3]; day 33): 1.55 | clinical score of arthritis, Mean (the larger the value, the more severe the disease) ([3]; day 35): 2.05 | clinical score of arthritis, Mean (the larger the value, the more severe the disease) ([3]; day 38): 2.41 | clinical score of arthritis, Mean (the larger the value, the more severe the disease) ([3]; day 40): 2.60 | clinical score of arthritis, Mean (the larger the value, the more severe the disease) ([3]; day 42): 3.66 | clinical score of arthritis, Mean (the larger the value, the more severe the disease) ([3]; day 45): 4.61 | body weight of animals, Mean/g ([4]; day 0): 21.92 g | body weight of animals, Mean/g ([4]; day 4): 22.30 g | body weight of animals, Mean/g ([4]; day 7): 22.91 g | body weight of animals, Mean/g ([4]; day 11): 23.33 g | body weight of animals, Mean/g ([4]; day 14): 21.72 g | body weight of animals, Mean/g ([4]; day 18): 23.92 g | body weight of animals, Mean/g ([4]; day 20): 24.09 g | body weight of animals, Mean/g ([4]; day 25): 23.64 g | body weight of animals, Mean/g ([4]; day 28): 23.48 g | body weight of animals, Mean/g ([4]; day 31): 23.12 g | body weight of animals, Mean/g ([4]; day 33): 23.00 g | body weight of animals, Mean/g ([4]; day 35): 22.08 g | body weight of animals, Mean/g ([4]; day 38): 22.86 g | body weight of animals, Mean/g ([4]; day 40): 22.70 g | body weight of animals, Mean/g ([4]; day 42): 22.45 g | body weight of animals, Mean/g ([4]; day 45): 22.30 g | effect on body weight of animals (in words) ([4]; whole experiment, days 0-45, methotrexate 0.25 mg/kg once a week, tofacitinib 5 mg/kg once a day): two sudden drops
